Measurements published in ChEMBL document CHEMBL1201862, “PubChem BioAssay data set” (2004).
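Interpolation was linear, between the two tested concentrations surrounding the appropriate level; five concentrations were tested over 48 hours in 96-well plates. GI50: concentration for 50% inhibition of growth.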 The source made the active and inactive calls. No stated cut-off is given here; in the data, active = GI50 up to about 1.1 µM and inactive = higher.

Legend:
Assay in all cases: NCI tumour cell line growth inhibition, 48 h
OVCAR-4 = tested on: OVCAR-4
SF-539 = tested on: SF-539
TK-10 = tested on: TK-10
SK-OV-3 = tested on: SK-OV-3
RPMI-8226 = tested on: RPMI-8226
786-0 = tested on: 786-0
OVCAR-3 = tested on: OVCAR-3
SNB-75 = tested on: SNB-75
Malme-3M = tested on: Malme-3M
SK-MEL-2 = tested on: SK-MEL-2
A549 = tested on: A549
RXF 393 = tested on: RXF 393
K562 = tested on: K562
HCC 2998 = tested on: HCC 2998
SNB-19 = tested on: SNB-19
NCI-H522 = tested on: NCI-H522

Measured: GI50

COC(=O)c1cc(OC(C)=O)c2c(OC)ccc(OC)c2c1
inactive: OVCAR-4 > 100 µM | SF-539 > 100 µM | TK-10 > 100 µM | SK-OV-3 > 100 µM | RPMI-8226 > 100 µM | 786-0 > 100 µM | OVCAR-3 > 100 µM | SNB-75 39.5 µM | Malme-3M > 100 µM | SK-MEL-2 > 100 µM | A549 > 100 µM | RXF 393 > 100 µM | K562 > 100 µM

Cc1[nH]nc2c1C(=O)C=C(N(CCO)c1ccccc1)C2=O
inactive: SF-539 > 100 µM | TK-10 > 100 µM | HCC 2998 > 100 µM | SK-OV-3 > 100 µM | RPMI-8226 > 100 µM | 786-0 > 100 µM | SNB-19 > 100 µM | OVCAR-3 > 100 µM | SNB-75 88.9 µM | Malme-3M > 100 µM | A549 > 100 µM | RXF 393 > 100 µM | NCI-H522 > 100 µM | K562 > 100 µM

CC(=O)C1=CSC2[C@H](NC(=O)Cc3ccccc3)C(=O)N2C1C(=O)OC(c1ccccc1)c1ccccc1 (stereo partly specified)
inactive: OVCAR-4 > 100 µM | SF-539 > 100 µM | TK-10 > 100 µM | HCC 2998 > 100 µM | SK-OV-3 > 100 µM | RPMI-8226 39.5 µM | 786-0 60.5 µM | SNB-19 > 100 µM | OVCAR-3 > 100 µM | SNB-75 56.2 µM | Malme-3M > 100 µM | SK-MEL-2 > 100 µM | A549 91.8 µM | NCI-H522 > 100 µM | K562 > 100 µM

CC(=O)NNc1nc(C)c(C(/C=C/c2ccc(Cl)cc2)=N/NC(=S)NN)s1
inactive: OVCAR-4 > 100 µM | SF-539 > 100 µM | TK-10 > 100 µM | SK-OV-3 > 100 µM | RPMI-8226 > 100 µM | 786-0 > 100 µM | SNB-19 > 100 µM | SNB-75 > 100 µM | Malme-3M > 100 µM | SK-MEL-2 > 100 µM | A549 > 100 µM | RXF 393 > 100 µM | NCI-H522 > 100 µM | K562 > 100 µM

CC(Oc1ccc(OCC2CCCCC2)cc1)C(=O)NCCO (stereo unspecified)
inactive: OVCAR-4 > 100 µM | SF-539 > 100 µM | TK-10 > 100 µM | SK-OV-3 > 100 µM | 786-0 > 100 µM | SNB-19 > 100 µM | OVCAR-3 64.9 µM | SNB-75 > 100 µM | Malme-3M > 100 µM | SK-MEL-2 > 100 µM | A549 > 100 µM | RXF 393 > 100 µM | NCI-H522 87.1 µM | K562 > 100 µM

CCOC(=O)Cn1c(=O)n(C)c(=O)c2c1ncn2Cc1ccccc1
inactive: SF-539 > 100 µM | TK-10 > 100 µM | SK-OV-3 > 100 µM | RPMI-8226 > 100 µM | 786-0 > 100 µM | SNB-19 > 100 µM | OVCAR-3 > 100 µM | SNB-75 > 100 µM | Malme-3M > 100 µM | SK-MEL-2 > 100 µM | A549 > 100 µM | NCI-H522 > 100 µM | K562 > 100 µM

CCOC(=O)NC(=O)c1cn(CCN2CCN(C(=O)CCCCCCCCCCNc3ncnc4c3ncn4C3OC(CO)C(O)C3O)CC2)c(=O)[nH]c1=O (stereo unspecified)
inactive: TK-10 > 100 µM | HCC 2998 > 100 µM | SK-OV-3 > 100 µM | 786-0 > 100 µM | SNB-19 > 100 µM | SNB-75 > 100 µM | Malme-3M > 100 µM | SK-MEL-2 > 100 µM | A549 > 100 µM | K562 > 100 µM

CCOC(=O)C(/C(=N/NC(=O)OC)C(=O)Nc1ccc(C(C)=O)cc1)c1cnc2ccccc2n1 (stereo unspecified)
inactive: OVCAR-4 > 100 µM | SF-539 > 100 µM | TK-10 > 100 µM | HCC 2998 > 100 µM | SK-OV-3 > 100 µM | 786-0 > 100 µM | SNB-19 > 100 µM | OVCAR-3 > 100 µM | SNB-75 90.8 µM | Malme-3M > 100 µM | A549 > 100 µM | RXF 393 > 100 µM | NCI-H522 > 100 µM | K562 > 100 µM

O=C(CCc1n[nH]c(=S)o1)Nc1ccccc1C(F)(F)F
inactive: OVCAR-4 > 100 µM | SF-539 > 100 µM | TK-10 > 100 µM | HCC 2998 > 100 µM | SK-OV-3 > 100 µM | RPMI-8226 25.9 µM | 786-0 > 100 µM | SNB-19 > 100 µM | OVCAR-3 > 100 µM | SNB-75 > 100 µM | Malme-3M > 100 µM | NCI-H522 > 100 µM | K562 66.7 µM

OCCCCn1cnc2c(O)ncnc21
inactive: OVCAR-4 > 100 µM | SF-539 > 100 µM | TK-10 > 100 µM | HCC 2998 > 100 µM | RPMI-8226 > 100 µM | 786-0 > 100 µM | SNB-19 > 100 µM | OVCAR-3 > 100 µM | SNB-75 > 100 µM | Malme-3M > 100 µM | A549 > 100 µM | RXF 393 > 100 µM | K562 > 100 µM

O=C1CCN(CCC(F)(F)C(F)(F)C(F)(F)C(F)(F)F)C(=S)N1
inactive: OVCAR-4 > 100 µM | SF-539 > 100 µM | TK-10 > 100 µM | RPMI-8226 > 100 µM | 786-0 > 100 µM | SNB-19 > 100 µM | OVCAR-3 > 100 µM | SNB-75 > 100 µM | Malme-3M > 100 µM | SK-MEL-2 > 100 µM | A549 > 100 µM | RXF 393 > 100 µM | NCI-H522 > 100 µM | K562 > 100 µM

Cn1c2c(c3ccccc31)CCN(CCCN1CCN(c3cccc(Cl)c3)CC1)C2=O
inactive: SF-539 18.1 µM | TK-10 27.8 µM | SK-OV-3 38.5 µM | RPMI-8226 12.2 µM | 786-0 17.1 µM | SNB-19 27.4 µM | A549 49.3 µM | RXF 393 14.9 µM | NCI-H522 18.8 µM | K562 14.8 µM

COc1cc(C(=O)O)cc2c1[nH]c1ccccc12 [MUKOEIC ACID]
inactive: OVCAR-4 > 25 µM | SF-539 > 25 µM | TK-10 > 25 µM | HCC 2998 > 25 µM | SK-OV-3 > 25 µM | RPMI-8226 > 25 µM | 786-0 > 25 µM | SNB-19 > 25 µM | OVCAR-3 > 25 µM | Malme-3M > 25 µM | SK-MEL-2 > 25 µM | A549 > 25 µM | NCI-H522 > 25 µM | K562 > 25 µM

CC1OC(=O)N(CCCC=C2SCCCS2)C1=O (stereo unspecified)
inactive: OVCAR-4 > 100 µM | SF-539 > 100 µM | TK-10 > 100 µM | SK-OV-3 > 100 µM | RPMI-8226 > 100 µM | 786-0 > 100 µM | SNB-19 > 100 µM | OVCAR-3 > 100 µM | SNB-75 > 100 µM | Malme-3M > 100 µM | SK-MEL-2 > 100 µM | A549 > 100 µM | RXF 393 > 100 µM | NCI-H522 > 100 µM | K562 > 100 µM
